Results reported in US20260248794A1, “METHODS AND MATERIALS FOR PROMOTING BONE GROWTH” (Mayo Foundation for Medical Education and Research, priority 2022, published 2026).
Several values for one entry are separate records, joined by “and”; a condition that tells them apart may be missing. Equal values may be shown once. Entries after “also recorded” stand apart in the source; their conditions may differ.

How the values were obtained:
H3K27me3 in MC3T3 cells = assay: Western blotting for H3K27me3 in MC3T3 cells treated with EED inhibitor; type: cell-based, murine; settings: A-395 at 0.02-10 mM as printed, FIG. 5A
Protocol: (§1) MC3T3 sc4 murine calvarial osteoblasts were purchased from American Type Culture Collection and maintained in α-minimal essential medium without ascorbic acid (Gibco) containing 10% fetal bovine serum (Atlanta Biologicals), 100 units/mL penicillin, and 100 µg/mL streptomycin (Gibco).
MC3T3 cells (4,000 cells/cm^2) were plated in 6-well plates in maintenance medium. […] Cells were lysed in radioimmunoprecipitation buffer (150 mm NaCl, 50 mm Tris, pH 7.4, 1% sodium deoxycholate, 0.1% sodium dodecyl sulfate, 1% Triton X-100) supplemented with protease inhibitor mixture (Sigma) and phenylmethylsulfonyl fluoride (Sigma). Lysates were cleared by centrifugation. Protein concentrations were determined by the DC Protein Assay (Bio-Rad). Proteins were resolved by SDS-PAGE and transferred to polyvinylidene difluoride membranes. After blocking in 5% nonfat dry milk for 45 minutes at room temperature, primary antibodies were added overnight at 4° C., followed by secondary antibodies for 1 hour at room temperature. Proteins were visualized using an ECL Prime detection kit.

MC3T3 cells = assay: Osteogenic differentiation of MC3T3 cells (RT-qPCR of osteogenic genes, alizarin red staining); type: cell-based, murine; settings: differentiating MC3T3 cells; FIG. 5B-5F
Protocol: as §1
For osteogenic differentiation, MC3T3s were seeded in respective maintenance medium at a density of 10,000 cells/cm^2. Next day, osteogenic medium supplemented with vehicle, GSK126 (Xcess Biociences Inc.) or A-395 (Sigma) was added to the cells. Osteogenic medium for MC3T3 cells consisted of 50 μg/mL ascorbic acid (Sigma) and 4 mm β-glycerol phosphate (Sigma). Three days later, old medium was replaced with a fresh batch of osteogenic medium supplemented with vehicle, GSK126, or A-395. On day 6 of differentiation, fresh osteogenic medium without supplements was added and replenished every 2 to 3 days. On day 14, cells were fixed in 10% neutral buffered formalin and stained with 2% alizarin red to visualize calcium deposition.
Total RNA was isolated using the Direct-zol™ RNA kit (Zymo Research) and quantified using the NanoDrop 2000 spectrophotometer (Thermo Fischer Scientific). RNA was then reverse transcribed into cDNA by the SuperScript III First-Strand Synthesis System (Invitrogen). Transcript levels were then measured using the 2^ΔΔct method and normalized GAPDH (set at 100), a housekeeping gene.

OI mice = assay: μCT analysis of femurs of OI mice treated with A-395 for 5 weeks; type: in vivo
Protocol: (§2) Five-week-old OI mice (mice harboring the Col1a2 c.2098G>T p.Gly700Cys allele […]) were subcutaneously injected with DMSO (vehicle) or EED inhibitor A-395 (Sigma) at concentrations of either 100 mg/kg or 300 mg/kg twice weekly for 5 weeks.
Femurs of injected mice were scanned by μCT Skyscan 1076 (Brunker) at the maximal potencial 60 kV and 167 μA with 0.25 mm thick aluminum filter and at the voxel resolution of 9 μm. The μCT scans were performed over 360° of total rotation with each angular rotation step of 0.7°. […] The trabecular region of interest were selected with reference to the growth plate. The 2D images were created using CTAn siftware package (Skyscan). The 3D μCT models of each femur were created using a 3D reconstruction software package (Skyscan).
(§3) 5-week-old OI mice were treated twice weekly with a subcutaneous injection of either vehicle (DMSO) or EED inhibitor A-395 had concentrations of 300 mg/kg or 100 mg/kg. These mice were treated for five weeks and then analyzed for changes in bone structure.

[1] = Weight, femur length and toxicity in OI mice treated with A-395 for 5 weeks; type: in vivo; settings: for Weigh at 3 weeks: 3 weeks of age, prior to treatment; for Weight at 5 weeks: start of treatment; for Weight at 10 weeks: individual OI mice
Protocol: as §2, §3
OI mice were weighed at 3 weeks of age prior to treatment, at the start of treatment at 5 weeks, and after 5 weeks of treatment with vehicle (Veh), 300 mg/kg (300), or 100 mg/kg (100) of A-395.

G610C mice [2] = assay: μCT analysis of G610C mice treated with A-395 for 3 weeks; type: in vivo; settings: male G610C mice
Protocol: (§4) G610C mice were treat with the EED inhibitor A-395. […] The dose of A-395 was lowered to see if that improved the health of the mice and bone formation. Three 5-week-old male G610C mice were treated with DMSO control or either 50 mg/kg or 100 mg/kg A-395 twice a week by subcutaneous injection for 3 weeks.

G610C mice [3] = assay: Three-point bending of G610C mice treated with A-395 for 3 weeks; type: in vivo; settings: male G610C mice
Description: Three-point bend fixture was mounted on a servohydrauilic mechanical testing frame (#312, MTS Systems) instrumented with a 100-N capacity load cell (#3397-25, Leebow Products). Femurs were be mounted on supports spanning 8 mm. Point loading was applied to the femur mid-shaft allowing the bones to flex about an axis aligned with the medial-lateral line. Loading was applied under displacement control at a rate of 20 mm/minute until fracture. Force and displacement data were be sampled at 256 Hz. Peak load and peak displacement was be quantified. The stiffness was be calculated from the slope of the linear region of the force displacement curve.
as §4

G610C mice [4] = assay: μCT analysis of G610C mice treated with MAK683 for 3 weeks (three mice); type: in vivo; settings: for bone density / trabecular structure: G610C mice, vs vehicle treated control; for bone parameters (μCT) vs controls: male G610C mice, 3 weeks
Protocol: To determine if MAK683 improved bone formation in OI, three 5-week-old male G610C mice were injected SQ with 50 mg/kg MAK683 twice a week for 3 weeks.

OVX mice = assay: μCT analysis of OVX mice treated with MAK683; type: in vivo, C57BL/6 female mice
Protocol: To assess whether EED inhibition could rescue low bone mass due to osteoporosis, ovariectomy (OVX) or sham (Sham) surgery on was performed 15-week-old C57BL/6 female mice with 6 animals per group. On the day of surgery, all mice were imaged using a PIXImus densitometer to measure bone density prior to OVX. Mice were allowed 7 days to recover. Mice in each group were randomized to EED inhibitor treatment or control. These groups were sham/vehicle (Sh−), sham/EED (SH+), OVX/vehicle (OV−), and OVX/EED (OV+). Again, each mouse was imaged to determine bone density after OVX prior to EED treatment. Mice were then injected with vehicle control or 20 mg/kg MAK683 SQ twice weekly for 3 weeks.

G610C mice [5] = assay: μCT analysis of large cohort of G610C mice treated with MAK683; type: in vivo; settings: for bone density (μCT) / trabecular structure: G610C mice; for bone density (μCT): 3 weeks, 9 mice per group; for trabecular structure: vs vehicle treated control; for bone quality parameters: OI mice
Protocol: One day prior to treatment 5-week-old male G610C mice were weighed to determine dosing. MAK683 was dissolved in DMSO for each treatment arm of 5, 10, 20, or 50 mg/kg for selected mice. The volume was adjusted to […] for injection using corn oil. Mice were injected subcutaneously twice weekly for 3 weeks. After 3 weeks, mice were euthanized, and bone was harvested.
To further examine if different doses of MAK683 improved bone formation in 01, SQ nine 5-week-old male G610C mice were injected with 50, 20, 10, or 5 mg/kg MAK683 twice a week for 3 weeks.

[6] = 100 mg/kg, vs vehicle, 100 mg/kg
[7] = 300 mg/kg, vs vehicle, 300 mg/kg
[8] = individual OI mice of the 100 mg/kg group, in g (unit assumed)
[9] = individual OI mice of the 300 mg/kg group, in g (unit assumed)
[10] = 20 mg/kg, vs OVX vehicle treated control

CN(C)C1CN(C2CCc3cccc(F)c32)CC1c1ccc(N2CCN(S(C)(=O)=O)CC2)cc1 (stereo not drawn) [A-395, 1-(7-fluoro-2,3-dihydro-1H-inden-1-yl)-N,N-dimethyl-4-[4-(4-methylsulfonylpiperazin-1-yl)phenyl]pyrrolidin-3-amine]
H3K27me3 (western blotting) (H3K27me3 in MC3T3 cells): reduced H3K27me3 in a concentration-dependent manner | osteogenic differentiation (osteogenic genes, alizarin red staining) (MC3T3 cells): stimulates osteogenesis; also recorded: more potent at stimulating osteogenic differentiation | bone surface density (OI mice; 100 mg/kg): increase | bone surface to volume ratio (OI mice; 100 mg/kg): decrease | intersection surface (OI mice; 100 mg/kg): no change | trabecular number (OI mice; 100 mg/kg): increase | trabecular pattern (OI mice; 100 mg/kg): decrease | trabecular thickness (OI mice; 100 mg/kg): increase | bone formation within the femurs (μCT) (OI mice; 100 mg/kg SC twice weekly): robust bone formation | bone surface (OI mice; 100 mg/kg, vs vehicle): increase | trabecular bone (OI mice; 100 mg/kg, vs vehicle): increase in trabecular bone | bone volume (OI mice; [6]): increased | percent bone per volume (OI mice; [6]): increased | tissue surface (OI mice; [6]): increased | tissue volume (OI mice; [6]): increased | bone surface to volume ratio (OI mice; 300 mg/kg): unchanged | intersection surface (OI mice; 300 mg/kg): down | trabecular number (OI mice; 300 mg/kg): decrease | trabecular pattern (OI mice; 300 mg/kg): slight decrease | trabecular thickness (OI mice; 300 mg/kg): slight decrease | bone mineralization (μCT) (OI mice; 300 mg/kg SC twice weekly): loss of bone mineralization | bone density (OI mice; 300 mg/kg, FIG. 11A): down | trabecular bone (OI mice; 300 mg/kg, vs vehicle): loss of trabecular bone | bone surface (OI mice; [7]): decrease and down | bone volume (OI mice; [7]): decreased | percent bone per volume (OI mice; [7]): decreased | tissue volume (OI mice; [7]): increased | toxicity to the mouse ([1]; OI mice, 300 mg/kg SC twice weekly, 5 weeks): toxic | weight (change vs vehicle) ([1]; OI mice, 300 mg/kg or 100 mg/kg, after 5 weeks of treatment, vs vehicle): no significant changes | Weigh at 3 weeks [1, 8]: 10.5 and 10.2 and 9.6 | Weight at 5 weeks [1, 8]: 21.3 and 21.6 and 19.9 | Weigh at 3 weeks [1, 9]: 11.1 and 11.9 and 14.0 | Weight at 5 weeks [1, 9]: 20.9 and 22.6 and 24.0 | Weight at 10 weeks ([1]; 100 mg/kg, after 5 weeks of treatment, 100 mg/kg): 26.5 (2×) and 28.0 | Weight at 10 weeks ([1]; 300 mg/kg, after 5 weeks of treatment, 300 mg/kg, in g (unit assumed)): 26.6 and 27.8 and 29.0 | bone formation (μCT) (G610C mice [2]; 50 mg/kg SC twice a week): increase in bone formation | bone formation (μCT) (G610C mice [2]; 100 mg/kg SC twice a week): increase in bone formation | bone (μCT) vs controls (G610C mice [2]; 300 mg/kg SQ twice a week): less bone than controls | health of treated mice at end of protocol (G610C mice [2]; 300 mg/kg SQ twice a week): losing weight and appeared sickly | stiffness (three-point bending) (G610C mice [3]; 50 mg/kg SC twice a week): improved stiffness | stiffness (three-point bending) (G610C mice [3]; 100 mg/kg SC twice a week): improved stiffness

CS(=O)(=O)c1ccc(-c2cnc(NCc3ccco3)n3cnnc23)cc1 [EED226, n-(2-furanylmethyl)-8-[4-(methylsulfonyl)phenyl]-1,2,4-triazolo[4,3-c]pyrimidin-5-amine]
H3K27me3 (western blotting) (H3K27me3 in MC3T3 cells): reduced H3K27me3 in a concentration-dependent manner

Cc1ncccc1-c1cnc(NCc2c(F)ccc3c2CCO3)n2cnnc12 [MAK683, N-[(5-fluoro-2,3-dihydro-1-benzofuran-4-yl)methyl]-8-(2-methylpyridin-3-yl)-[1,2,4]triazolo[4,3-c]pyrimidin-5-amine]
bone density (G610C mice [4]; 20 mg/kg): significant increase | trabecular structure (G610C mice [4]; 20 mg/kg): significant increase | bone density (G610C mice [4]; 50 mg/kg): significant increase | trabecular structure (G610C mice [4]; 50 mg/kg): significant increase | bone parameters (μCT) vs controls (G610C mice [4]; 20 mg/kg SQ twice a week): improvement in essentially all bone parameters | bone parameters (μCT) vs controls (G610C mice [4]; 50 mg/kg SQ twice a week): improvement in many bone parameters | bone loss (μCT) (OVX mice; 20 mg/kg SQ twice weekly, 3 weeks): prevented bone loss | bone density (OVX mice; [10]): significant intention | trabecular number (OVX mice; [10]): significant intention | bone density (μCT) (G610C mice [5]; 5 mg/kg SQ twice a week): possible minor improvement | bone density (μCT) (G610C mice [5]; 10 mg/kg SQ twice a week, 10 mg/kg): visual improvement; also recorded: significant increase | trabecular structure (G610C mice [5]; 10 mg/kg): significant increase | bone density (μCT) (G610C mice [5]; 20 mg/kg SQ twice a week, 20 mg/kg): visual improvement; also recorded: significant increase | trabecular structure (G610C mice [5]; 20 mg/kg): significant increase | bone density (μCT) (G610C mice [5]; 50 mg/kg SQ twice a week): possible minor improvement | bone parameters (μCT) vs controls (G610C mice [5]; G610C mice, 50, 20, 10, or 5 mg/kg, FIG. 17B-M): improvement in many bone parameters | bone quality parameters (G610C mice [5]; 5 mg/kg): trend in increased | bone quality parameters (G610C mice [5]; 50 mg/kg): trend in increased
